The nature of this series: in vitro. The following applies: PAMPA, pH 7.4.

Experimental findings from ChEMBL document CHEMBL5360565, “Discovery of novel arylpiperazine-based DA/5-HT modulators as potential antipsychotic agents - Design, synthesis, structural studies and pharmacological profiling” (Eur J Med Chem, 2023) are described below.

In the case of `CCN1CCCC1CNC(=O)c1cc(S(N)(=O)=O)ccc1OC` (configuration not stated) [SULPIRIDE], the Papp at 5 h is 0.006 ×10⁻⁶ cm/s. On to `Cn1c(=O)c2c(ncn2C)n(C)c1=O` [CAFFEINE], for which the Papp at 5 h amounted to 9.13 ×10⁻⁶ cm/s.
